How the values were obtained:
[1] = system: amidohydrolase 4ewt (amino acid sequence of SEQ ID NO: 1, SACOL0085); assay: Enzymatic detection of hippuric acid or methylhippuric acid by hydrolysis with amidohydrolase 4ewt and glycine oxidase/Trinder absorbance measurement (Example); assay type: biochemical, Staphylococcus aureus COL; conditions: amidohydrolase 4ewt 30 units/mL; specimens 5, 10, 20 mM in saline; 37° C.; Tris buffer pH 8.5; absorbance 545 nm; FIG. 3
Protocol: A first reagent R1 was prepared which contained 30 units/mL of amidohydrolase 4ewt, 7.5 units/mL of peroxidase, 4.5 mM of N-ethyl-N-(2-hydroxy-3-sulfopropyl)-3-methoxyaniline (TOOS), and 50 mM of Tris buffer (pH 8.5), and a second reagent R2 was prepared which contained 5 units/mL of glycine oxidase, 1.2 mM of 4-aminoantipyrine, and 100 mM of Tris buffer (pH 8.5).
Specimen Groups 1 to 4 and Specimen 0 were prepared as measurement samples, i.e., examination specimens.
Each of the examination specimens was diluted to five times by means of an automatic analyzer to prepare a diluted specimen solution. A volume of 60 μL of the first reagent R1 was added and mixed with 2 μL of the diluted specimen solution, and the reaction was allowed to proceed well at 37° C. After that, 20 μL of the second reagent R2 was further added and mixed with the reaction mixture, and the reaction was allowed to proceed well at 37° C. The absorbance of the resulting specimen solution was measured using an automatic analyzer, manufactured by JEOL Ltd. under the trade name JCA-BM 6050, at a primary wavelength of 545 nm and a secondary wavelength of 805 nm. The concentration of hippuric acid or methylhippuric acid in each examination specimen was calculated from the measured absorbance and plotted on a graph.
In FIG. 3, the abscissa represents known concentrations (unit: mM) of hippuric acid or methylhippuric acid in the examination specimens and the ordinate represents measured concentrations (unit: mM) obtained by the automatic analyzer. In FIG. 3, the diamond symbols represent the specimens of Specimen Group 1, namely the examination specimens containing hippuric acid, the square symbols represent the specimens of Specimen Group 2, namely the examination specimens containing 2-methylhippuric acid, the triangle symbols represent the specimens of Specimen Group 3, namely the examination specimens containing 3-methylhippuric acid, and the x symbols represent the specimens of Specimen Group 4, namely the examination specimens containing 4-methylhippuric acid. The examination specimen for which the known concentration is 0 mM is Specimen 0, which is represented by using all of the symbols representing Specimen Groups 1 to 4 since, as previously stated, Specimen 0 was used as a negative control in measurement for the Specimen Groups 1 to 4.
The amidohydrolase 4ewt used in Example was produced using a gene chemically synthesized by converting the amino acid sequence of SEQ ID NO: 1 to a base sequence. […]

[2] = system: hippurate hydrolase (EC 3.5.1.32); assay: Same detection method using hippurate hydrolase (Comparative Example 2); assay type: biochemical; conditions: hippurate hydrolase instead of amidohydrolase; specimens 5, 10, 20 mM in saline; 37° C.; FIG. 5
Protocol: (§1) The absorbance of each specimen was measured in the same manner as in Example, except for using a hitherto known hippurate hydrolase (EC 3.5.1.32, manufactured by Nipro Corporation) instead of the amidohydrolase used in Example. The concentration of hippuric acid or methylhippuric acid in each examination specimen was calculated from the measured absorbance and plotted on a graph. The abscissa, ordinate, and symbols in FIG. 5 are the same as those in FIG. 3 or 4.

[3] = system: aminoacylase PH1043; assay: Same detection method using aminoacylase PH1043 (Comparative Example 1); assay type: biochemical, Pyrococcus horikoshii; conditions: aminoacylase PH1043 instead of amidohydrolase; specimens 5, 10, 20 mM in saline; 37° C.; FIG. 4
Protocol: as §1, with “using” for “using a”, “aminoacylase PH1043” for “hippurate hydrolase (EC 3.5.1.32, manufactured by Nipro Corporation)”, “4” for “5”, “3.” for “3 or 4.”
The aminoacylase PH1043 used in Comparative Example 1 is one produced by Nipro Corporation. The aminoacylase PH1043 will not be described in detail as it is a hitherto known enzyme described, for example, in the following literatures: Imai Satsuki, Nagoshi Kentaro, Shinki Shota, Baba Toshiaki, Nishiya Yoshiaki, “Functional Modification of Pyrococcus horikoshii-Derived Hippurate Hydrolase”, The Society for Biotechnology, Japan (2018) (Reference Literature 7); Imai Satsuki, Nagoshi Kentaro, Shinki Shota, Baba Toshiaki, Nishiya Yoshiaki, “Development of Method and Enzyme for Enzymatic Assay of Hippuric Acid”, The Society of Analytical Bio-Science (2019) (Reference Literature 8); Imai Satsuki, Nagoshi Kentaro, Shinki Shota, Baba Toshiaki, Nishiya Yoshiaki, “Functional Improvement of Hippurate Hydrolase”, Japan Society for Bioscience, Biotechnology and Agrochemistry (2019) (Reference Literature 9); Imai Satsuki, Nagoshi Kentaro, Shinki Shota, Baba Toshiaki, Nishiya Yoshiaki, “Functional Improvement of Hippurate Hydrolase toward Practical Use”, The Molecular Biology Society of Japan (2019) (Reference Literature 10); Imai Satsuki, Nagoshi Kentaro, Shinki Shota, Baba Toshiaki, Nishiya Yoshiaki, “Development of Enzymatic Assay Method for Determining Total Exposure to Toluene and Xylene (1)”, The Society of Analytical Bio-Science (2020) (Reference Literature 11); and Suginaka Muneyuki, Torii Gento, Imai Satsuki, Baba Toshiaki, Nishiya Yoshiaki, “Development of Enzymatic Assay Method for Determining Total Exposure to Toluene and Xylene (2)”, The Molecular Biology Society of Japan (2020) (Reference Literature 12). The contents of Reference Literatures 7 to 12 are incorporated herein by reference.

SMILES	agreement of measured concentration with known concentration in the specimen (hydrolysis by the enzyme) [1]	agreement of measured concentration with actual concentration in the specimen (hydrolysis by the enzyme) [2]	agreement of measured concentration with actual concentration in the specimen (hydrolysis by the enzyme) [3]
Cc1ccccc1C(=O)NCC(=O)O [2-methylhippuric acid, (2-methylbenzoylamino)acetic acid]	agree well with each other	not much different from the measured concentration obtained for the negative control	not much different from the measured concentration obtained for the negative control
Cc1cccc(C(=O)NCC(=O)O)c1 [3-methylhippuric acid]	agree well with each other	agreed well with the actual concentrations	agreed well with the actual concentrations
Cc1ccc(C(=O)NCC(=O)O)cc1 [4-methylhippuric acid]	agree well with each other	agreed well with the actual concentrations	agreed well with the actual concentrations
O=C(O)CNC(=O)c1ccccc1 [hippuric acid, benzoylaminoacetic acid]	agree well with each other	agreed well with the actual concentrations	agreed well with the actual concentrations

Reference: patent publication US20250257383A1, “MATERIAL DETECTION METHOD USING AMINOACYLASE” (JOSHO GAKUEN EDUCATIONAL FOUNDATION, priority 2021, published 2025)
